Measurements as given in US10196609B2, “Composition for promoting cardiac differentiation of pluripotent stem cell comprising EGFR inhibitor” (Kyoto University, priority 2013, dated 2019).

Experiments:
[1] = Effect to promote cardiac differentiation by the methods of WO2012/026491; assay type: cell-based; settings: methods described in the Examples of WO2012/026491
Excerpt: The effect of SO3031 (KY01-I), SO2031 (KY02-I), SO3042 (KY03-I), and SO2077 to promote cardiac differentiation was confirmed by the methods described in the Examples of WO2012/026491.

[2] = tested on: human iPS cells (IMR90-1); test: Cardiac differentiation of human iPS cells in floating culture, percentage of cTnT-positive cardiomyocytes by flow cytometry; assay type: cell-based; settings: 5-20 μM added Days 2-9 of culture, FIG. 7
Description: (§1) Human ES cells or iPS cells subcultured with mouse feeder cells were collected. Colonies of the human ES cells or iPS cells (3-10×10^6 cells/well) were plated on 6-well plates of Ultra-low culture dish (CORNING 3261), and cultured in an IMDM-based medium having a defined composition (IMDM (Sigma) containing 1% MEM non-essential amino acid solution (Sigma), 1% penicillin-streptomycin (Gibco), 2 mM L-glutamine (Sigma), 0.5 mM L-carnitine (Sigma), 0.001% 2-mercaptoethanol (Gibco), and 0.4% human serum albumin (Sigma)) in floating culture for 30 days (FIG. 5). During Days 0-2 of culture (for 2 days), CHIR99021 (Axon) (4 μM) and BIO (Calbiochem) (1 μM) were added, and during Days 3-9 of culture (for 6 days) KYO2111 (10 μM) and XAV939 (1 μM) were added. […] The cardiac differentiation was evaluated by analyzing the percentage of cardiomyocytes with flow cytometry using an antibody against cardiac troponin T (cTnT), a specific marker of cardiac muscle at Day 30 of culture.

Monkey ES cells = test: Cardiac differentiation of monkey ES cells (α-MHC promoter-GFP) in adhesion culture, GFP fluorescence by HCS; assay type: cell-based; settings: for effect of promoting cardiac differentiation (GFP fluorescence): added Days 4-8 together with KYO2111 (10 µM), AG1478 20 μM, read at Day 10, FIGS. 1-3
Description: At Day 10 of culture, compounds that enhanced GFP fluorescence were identified by measuring GFP fluorescence with HCS (high contents screening) system (Olympus IX81 inverted microscope and Molecular device/MetaMorph imaging system).
During Days 4-8 of culture KYO2111 (10 μM) and PP3 (3 μM, 10 μM, 30 μM, or 100 μM) were added.

Human iPS cells (253G1) = test: Cardiac differentiation of human iPS cells in feeder-free sphere culture, cTnT flow cytometry; assay type: cell-based; settings: 10 μM Days 3-9 in addition to KYO2111 (10 μM) and XAV939 (1 μM); Day 30; increased from 34% without EGFR inhibitor; FIG. 9
Description: Human iPS cells (253G1) were cultured in sphere culture without feeder cells (feeder-free sphere culture). In detail, 253G1 cells subcultured with mouse feeder cells were collected, the cell cluster was passed through […] (CellTrics, PARTEC04004-2327) to give uniform cell clusters having the size of 80-120 μm, the cells were plated in 6-well plates of Ultra-low culture dish (CORNING 3261) and cultured in mTeSR1 medium (Stem Cell Technology 05850) containing 3% methylcellulose (R&D, HSC001) in floating culture until the size of the colonies of the iPS cells arrived at about 200-300 μm. The cells were subcultured more than 20 times by repeating the steps of this feeder-free sphere culture. The medium was replaced with an IMDM-based medium having a defined composition (IMDM (Sigma) containing 1% MEM non-essential amino acid solution (Sigma), 1% penicillin-streptomycin (Gibco), 2 mM L-glutamine (Sigma), 0.5 mM L-carnitine (Sigma), 0.001% 2-mercaptoethanol (Gibco), and 0.4% human serum albumin (Sigma)) and the cells were cultured in floating culture for 30 days (FIG. 5). […] The cardiac differentiation was evaluated by analyzing the percentage of cardiomyocytes with flow cytometry using an antibody against cardiac troponin T (cTnT), a specific marker of cardiac muscle at Day 30 of culture.

human ES cells (KhES-3) = test: Cardiac differentiation of human ES cells in floating culture, percentage of cTnT-positive cardiomyocytes by flow cytometry; assay type: cell-based; settings: for effect to promote cardiac differentiation in combination with XAV939 only: XAV+AG1478 or gefitinib; for effect to promote cardiac differentiation in combination with XAV939 only / effect to promote cardiac differentiation by itself: human ES or iPS cells, cell line not stated, FIG. 8; for effect to promote cardiac differentiation by itself: without addition of KYO2111 and XAV939
Description: as §1

Src kinase = Src kinase (Homo sapiens, UniProt P12931); settings: cited from earlier work
Chain of Src kinase (P12931 whole entry): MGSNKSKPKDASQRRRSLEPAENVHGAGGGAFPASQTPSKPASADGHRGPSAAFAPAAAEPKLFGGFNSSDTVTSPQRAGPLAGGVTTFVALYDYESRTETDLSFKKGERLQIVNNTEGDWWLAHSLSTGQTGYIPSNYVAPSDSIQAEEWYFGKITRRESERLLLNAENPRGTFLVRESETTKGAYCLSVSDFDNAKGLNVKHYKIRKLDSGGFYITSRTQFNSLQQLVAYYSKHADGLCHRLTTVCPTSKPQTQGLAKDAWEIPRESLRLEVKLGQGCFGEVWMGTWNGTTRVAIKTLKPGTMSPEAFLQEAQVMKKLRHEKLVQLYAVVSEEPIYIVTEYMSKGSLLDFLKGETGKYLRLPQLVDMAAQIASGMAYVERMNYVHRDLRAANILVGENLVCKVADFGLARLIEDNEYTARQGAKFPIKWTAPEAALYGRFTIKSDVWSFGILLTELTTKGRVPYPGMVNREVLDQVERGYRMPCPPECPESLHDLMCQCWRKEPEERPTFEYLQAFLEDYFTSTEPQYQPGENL

## CCCOc1ccc(CCC(=O)Nc2nc3ccc(I)cc3s2)cc1OC [SO2077, 2-(3-(3-methoxy-4-propoxyphenyl)propanamide)-6-iodobenzothiazole]
[1]
  effect to promote cardiac differentiation: confirmed

## COc1ccc(CCC(=O)Nc2nc3ccc(I)cc3s2)cc1OC [SO2031, 2-(3-(3,4-dimethoxyphenyl)propanamide)-6-iodobenzothiazole]
[1]
  effect to promote cardiac differentiation: confirmed

## COc1ccc(CCCC(=O)Nc2nc3ccc(I)cc3s2)cc1OC [SO3042, 2-(4-(3,4-dimethoxyphenyl)butanamide)-6-iodobenzothiazole]
[1]
  effect to promote cardiac differentiation: confirmed

## COc1ccc(CC(=O)Nc2nc3ccc(I)cc3s2)cc1OC [SO3031, 2-(2-(3,4-dimethoxyphenyl)acetamide)-6-iodobenzothiazole]
[1]
  effect to promote cardiac differentiation: confirmed

## COc1cc2ncnc(Nc3cccc(Cl)c3)c2cc1OC [AG1478]
[2]
  cardiac differentiation efficiency: the cardiac differentiation efficiency was increased
Monkey ES cells; Wnt signaling inhibitor KYO2111 added together, FIG. 4
  synergistic promotion of cardiac differentiation with KYO2111: synergistically promoted cardiac differentiation
Monkey ES cells; Wnt signaling inhibitor XAV939 added together, FIG. 4
  synergistic promotion of cardiac differentiation with XAV939: synergistically promoted cardiac differentiation
Monkey ES cells
  effect of promoting cardiac differentiation (GFP fluorescence): had the effect of promoting cardiac differentiation
Human iPS cells (253G1)
  percentage of cardiomyocytes: about 50%
Human ES cells (KhES-3); 20 μM, Days 2-9, stated for human ES (KhES-3) and iPS (IMR90-1) cells together, Day 30, FIG. 7
  percentage of cardiomyocytes: 92-95%
Human ES cells (KhES-3); 5-20 μM added Days 2-9 of culture, KhES-3, FIG. 7
  cardiac differentiation efficiency: the cardiac differentiation efficiency was increased
Human ES cells (KhES-3)
  effect to promote cardiac differentiation in combination with XAV939 only: produced an effect to promote cardiac differentiation
  effect to promote cardiac differentiation by itself: produced an effect to promote cardiac differentiation

## Nc1ncnc2c1cnn2-c1ccccc1 [PP3]
Monkey ES cells; PP3 3, 10, 30 or 100 μM with KYO2111 (10 μM), Days 4-8, FIG. 10
  enhancement of the effect of KYO2111 to promote cardiac differentiation: enhance the effect of KYO2111 to promote cardiac differentiation
Src kinase
  inhibitory effect on Src kinase: no inhibitory effect

## COc1cc2ncnc(Nc3ccc(F)c(Cl)c3)c2cc1OCCCN1CCOCC1 [gefitinib]
Monkey ES cells
  effect of promoting cardiac differentiation (GFP fluorescence): have the effect of promoting cardiac differentiation
Human iPS cells (253G1)
  percentage of cardiomyocytes: about 50%
Human ES cells (KhES-3); 10 μM added Days 0-2 of culture, with CHIR99021+BIO Days 0-2, KYO2111+XAV939 Days 3-9, Day 30, FIG. 6
  promotion of cardiac differentiation: did not promote cardiac differentiation
Human ES cells (KhES-3)
  effect to promote cardiac differentiation in combination with XAV939 only: produced an effect to promote cardiac differentiation
  effect to promote cardiac differentiation by itself: produced an effect to promote cardiac differentiation
